Reference: US10829520B2, “Beta-hairpin peptidomimetics” (POLYPHOR AG, priority 2015, dated 2020)
Where a SMILES comes first, the peptide text is derived from it. Bridges are numbered along the chain shown (N, C = ends). [ ]: non-standard residue; d: D form. Cha = N[C@@H](CC1CCCCC1)C(=O)O; aThr = C[C@H](O)[C@H](N)C(=O)O; Tle = CC(C)(C)[C@H](N)C(=O)O; dDab = NCC[C@@H](N)C(=O)O; dPip = O=C(O)[C@H]1CCCCN1; Orn = NCCC[C@H](N)C(=O)O; Dab = NCC[C@H](N)C(=O)O; Dap = NC[C@H](N)C(=O)O

Columns and labels:
Assay type in all cases: cell-based
[1] = system: Acinetobacter baumannii DSM 30008; conditions: DSM 30008
Method in brief: (§1)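 MIC in μg/mL read as absence of visible growth after 18-20 h incubation at 35° C. Bacteria at about 10^6 CFU/mL in MH-II (cation-adjusted) broth plus 0.002% P-80 were exposed to two-fold peptide dilutions per standard CLSI microdilution.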

[2] = system: Acinetobacter baumannii 872842; conditions: 872842
[3] = system: Klebsiella pneumoniae SSI #3010; conditions: SSI #3010
Method in brief: as §1

Escherichia coli 926415 = conditions: 926415
[4] = system: Klebsiella pneumoniae 968733; conditions: 968733
[5] = system: Pseudomonas aeruginosa ATCC 27853; conditions: ATCC 27853
Method in brief: as §1

[6] = system: Escherichia coli ATCC 25922; conditions: ATCC 25922
Method in brief: as §1

[7] = system: human red blood cells (hRBC); assay: Hemolysis of human red blood cells; conditions: red cells of human, 1 h, 100 μg/mL
Method in brief: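 Percent hemolysis = OD540 of peptide-treated supernatant relative to the 2.5% Triton X-100 (100%) control, PBS containing 0.001% acetic acid defining 0%. Peptides tested at 100 μg/mL against 20% (v/v) washed human RBC, 1 h, 37 °C, 300 rpm.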

| Structure (SMILES) | Acinetobacter baumannii DSM 30008 MIC [1] | Acinetobacter baumannii 872842 MIC [2] | Klebsiella pneumoniae SSI #3010 MIC [3] | Escherichia coli 926415 MIC (Escherichia coli 926415) | Klebsiella pneumoniae 968733 MIC [4] | Pseudomonas aeruginosa ATCC 27853 MIC [5] | Escherichia coli ATCC 25922 MIC [6] | Hemolysis at 100 μg/mL [7] |
| --- | --- | --- | --- | --- | --- | --- | --- | --- |
| CC(=O)N[C@@H](Cc1c[nH]c2ccccc12)C(=O)N[C@H]1CSSC[C@@H](C(=O)N[C@@H](CCCN)C(=O)N[C@H](C(=O)N[C@@H](CCN)C(=O)N[C@H]2CCNC(=O)[C@H]([C@@H](C)O)NC(=O)[C@H](CCN)NC(=O)[C@H](CCN)NC(=O)[C@H](CC(C)C)NC(=O)[C@@H](Cc3ccccc3)NC(=O)[C@H](CCN)NC2=O)[C@@H](C)O)NC(=O)[C@H](CC2CCCCC2)NC(=O)[C@H](Cc2c[nH]cn2)NC(=O)[C@H](CC(C)C)NC(=O)[C@@H]2CCCN2C(=O)[C@H]2CCCN2C(=O)[C@H]([C@H](C)O)NC(=O)[C@H](C)NC(=O)[C@H](C(C)(C)C)NC1=O [Ex. 113] (Ac-WC[Tle]A[aThr][dP]PLH[Cha]C[Orn]T[Dab][Dab][Dab][dF]L[Dab][Dab]T; disulfide 2-11; lactam 15-C) | 1 µg/mL | 0.25 µg/mL | 2 µg/mL | 0.5 µg/mL | 4 µg/mL | 1 µg/mL | 1 µg/mL | 5% |
| CC(C)C[C@@H]1NC(=O)[C@@H](Cc2ccccc2)NC(=O)[C@H](CCN)NC(=O)[C@@H](NC(=O)[C@H](CCN)NC(=O)[C@@H](NC(=O)[C@H](CCN)NC(=O)[C@@H]2CSSC[C@H](NC(=O)[C@@H](N)Cc3c[nH]c4ccccc34)C(=O)N[C@@H](C(C)(C)C)C(=O)N[C@@H](C)C(=O)N[C@@H](CO)C(=O)N3CCCC[C@@H]3C(=O)N3CCC[C@H]3C(=O)N[C@@H](CC(C)C)C(=O)N[C@@H](CO)C(=O)N[C@@H](Cc3ccc(O)cc3)C(=O)N2)[C@@H](C)O)CCNC(=O)[C@H]([C@@H](C)O)NC(=O)[C@H](CCN)NC(=O)[C@H](CCN)NC1=O [Ex. 114] (H-WC[Tle]AS[dPip]PLSYC[Dab]T[Dab][Dab][Dab][dF]L[Dab][Dab]T; disulfide 2-11; lactam 15-C) | 0.5 µg/mL | 0.125 µg/mL | 0.25 µg/mL | 0.0625 µg/mL | 0.5 µg/mL | 0.5 µg/mL | 0.125 µg/mL | 6% |
| CC(=O)N[C@@H](Cc1c[nH]c2ccccc12)C(=O)N[C@H]1CSSC[C@@H](C(=O)N[C@@H](CCN)C(=O)N[C@@H](CCN)C(=O)N[C@@H](CCN)C(=O)N[C@H]2CCNC(=O)[C@H]([C@@H](C)O)NC(=O)[C@H](CCN)NC(=O)[C@H](CCN)NC(=O)[C@H](CC(C)C)NC(=O)[C@@H](Cc3ccccc3)NC(=O)[C@H](CCN)NC2=O)NC(=O)[C@H](Cc2ccc(O)cc2)NC(=O)[C@H]([C@@H](C)O)NC(=O)[C@H](CC(C)C)NC(=O)[C@H](CCCNC(=N)N)NC(=O)[C@H]2CCCN2C(=O)[C@H](C(C)C)NC(=O)[C@H]([C@@H](C)O)NC(=O)[C@H](C(C)C)NC1=O [Ex. 115] (Ac-WCVTV[dP]RLTYC[Dab][Dab][Dab][Dab][Dab][dF]L[Dab][Dab]T; disulfide 2-11; lactam 15-C) | 0.5 µg/mL | 0.5 µg/mL | 0.5 µg/mL | 0.5 µg/mL | 1 µg/mL | 0.5 µg/mL | 0.5 µg/mL | 1% |
| CC(=O)N[C@@H](Cc1c[nH]c2ccccc12)C(=O)N[C@H]1CSSC[C@@H](C(=O)N[C@@H](CCCN)C(=O)N[C@H](C(=O)N[C@@H](CCN)C(=O)N[C@H]2CCNC(=O)[C@H]([C@@H](C)O)NC(=O)[C@H](CCN)NC(=O)[C@H](CCN)NC(=O)[C@H](CC(C)C)NC(=O)[C@@H](Cc3ccccc3)NC(=O)[C@H](CCN)NC2=O)[C@@H](C)O)NC(=O)[C@H](Cc2ccc(O)cc2)NC(=O)CNC(=O)[C@H](CC(C)C)NC(=O)[C@@H]2CCCN2C(=O)[C@H]2CCCN2C(=O)[C@H](CO)NC(=O)[C@H](CN)NC(=O)[C@H](C(C)(C)C)NC1=O [Ex. 117] (Ac-WC[Tle][Dap]S[dP]PLGYC[Orn]T[Dab][Dab][Dab][dF]L[Dab][Dab]T; disulfide 2-11; lactam 15-C) | 0.25 µg/mL | 0.125 µg/mL | 1 µg/mL | 0.25 µg/mL | 2 µg/mL | 2 µg/mL | 0.5 µg/mL | <1% |
| CC(=O)N[C@@H](Cc1c[nH]c2ccccc12)C(=O)N[C@H]1CSSC[C@@H](C(=O)N[C@@H](CCCN)C(=O)N[C@H](C(=O)N[C@@H](CCN)C(=O)N[C@H]2CCNC(=O)[C@H]([C@@H](C)O)NC(=O)[C@H](CCN)NC(=O)[C@H](CCN)NC(=O)[C@H](CC(C)C)NC(=O)[C@@H](Cc3ccccc3)NC(=O)[C@H](CCN)NC2=O)[C@@H](C)O)NC(=O)[C@H](Cc2ccc(O)cc2)NC(=O)[C@H](CO)NC(=O)[C@H]([C@@H](C)O)NC(=O)[C@@H]2CCCN2C(=O)[C@H]2CCCN2C(=O)[C@H](CC(C)C)NC(=O)[C@H](C)NC(=O)[C@H](C(C)(C)C)NC1=O [Ex. 118] (Ac-WC[Tle]AL[dP]PTSYC[Orn]T[Dab][Dab][Dab][dF]L[Dab][Dab]T; disulfide 2-11; lactam 15-C) | 0.25 µg/mL | 0.25 µg/mL | 0.5 µg/mL | 0.5 µg/mL | 0.5 µg/mL | 2 µg/mL | 0.5 µg/mL | 2% |
| CC[C@H](C)[C@@H]1NC(=O)[C@@H]2CCCN2C(=O)[C@H]2CCCN2C(=O)[C@H](Cc2ccc(O)cc2)NC(=O)[C@@H](NC(=O)[C@@H](NC(=O)[C@H](CCN)NC(=O)[C@H](CC(C)C)NC(C)=O)C(C)C)CSSC[C@@H](C(=O)N[C@@H](Cc2ccc(O)cc2)C(=O)N[C@@H](CCN)C(=O)N[C@@H](CCCN)C(=O)N[C@H](CCN)C(=O)N[C@@H](CCN)C(=O)N[C@H]2CCNC(=O)[C@H]([C@@H](C)O)NC(=O)[C@H](CCN)NC(=O)[C@H](CCN)NC(=O)[C@H](CC(C)C)NC(=O)[C@@H](Cc3ccccc3)NC(=O)[C@H](CCN)NC2=O)NC1=O [Ex. 119] (Ac-L[Dab]VCY[dP]PICY[Dab][Orn][dDab][Dab][Dab][Dab][dF]L[Dab][Dab]T; disulfide 4-9; lactam 15-C) | 0.5 µg/mL | 0.5 µg/mL | 1 µg/mL | 1 µg/mL | 4 µg/mL | 0.25 µg/mL | 0.25 µg/mL | 0.5% |
| CC(=O)N[C@@H](Cc1c[nH]c2ccccc12)C(=O)N[C@@H](C)C(=O)N[C@H](C(=O)N[C@H]1CSSC[C@@H](C(=O)N[C@@H](Cc2ccc(O)cc2)C(=O)N[C@@H](C)C(=O)N[C@@H](CCCN)C(=O)N[C@H](CCN)C(=O)N[C@@H](CCN)C(=O)N[C@H]2CCNC(=O)[C@H]([C@@H](C)O)NC(=O)[C@H](CCN)NC(=O)[C@H](CCN)NC(=O)[C@H](CC(C)C)NC(=O)[C@@H](Cc3ccccc3)NC(=O)[C@H](CCN)NC2=O)NC(=O)[C@H](CC(C)C)NC(=O)[C@H](CCN)NC(=O)[C@H]2CCCN2C(=O)[C@H](C(C)C)NC1=O)C(C)C [Ex. 120] (Ac-WAVCV[dP][Dab]LCYA[Orn][dDab][Dab][Dab][Dab][dF]L[Dab][Dab]T; disulfide 4-9; lactam 15-C) | 0.25 µg/mL | 0.25 µg/mL | 1 µg/mL | 2 µg/mL | 8 µg/mL | 1 µg/mL | 1 µg/mL | <1% |
| CC(C)C[C@@H]1NC(=O)[C@@H](CC(C)C)NC(=O)[C@H](CCN)NC(=O)[C@@H](NC(=O)[C@H](CCN)NC(=O)[C@H](NC(=O)[C@H](CCN)NC(=O)[C@H](CCCN)NC(=O)[C@@H]2CSSC[C@H](NC(=O)[C@@H](N)Cc3c[nH]c4ccccc34)C(=O)N[C@@H](C(C)C)C(=O)N[C@@H](C)C(=O)N[C@@H](CO)C(=O)N3CCC[C@@H]3C(=O)N3CCC[C@H]3C(=O)N[C@@H](CC(C)C)C(=O)N[C@@H](CO)C(=O)N[C@@H](Cc3ccc(O)cc3)C(=O)N2)[C@H](C)O)CCNC(=O)[C@H]([C@@H](C)O)NC(=O)[C@H](CCN)NC(=O)[C@H](CCN)NC1=O [Ex. 121] (H-WCVAS[dP]PLSYC[Orn][Dab][dT][Dab][Dab][Dab][dL]L[Dab][Dab]T; disulfide 2-11; lactam 16-C) | 0.125 µg/mL | 0.125 µg/mL | 0.25 µg/mL | 0.125 µg/mL | 0.25 µg/mL | 0.5 µg/mL | 0.125 µg/mL | <1% |
